{"source": "patent US9241927B2", "about": "“Pharmaceutical compositions comprising sigma receptor ligands” (Laboratories Del Dr, Esteve, S.A., priority 2009, dated 2016)", "key": {"pKa of API-001": {"assay": "pKa of API-001", "assay_type": "physicochemical", "source_text": "(§1) API-001 has a pKa 6.8, being a weakly basic drug and having a solubility strongly influenced by pH of the medium."}, "[1]": {"assay": "pH solubility profile of API-001", "assay_type": "physicochemical", "source_text": "as §1\nTherefore, it is expected that the extrusion-spheronization pellets of the invention to be absorbed over all the intestinal tract."}}, "data": [{"smiles": "Cc1cc(OCCN2CCOCC2)nn1-c1ccc2ccccc2c1.Cl", "note": "[API-001, 4-{2-[5-Methyl-1-(naphthalen-2-yl)-1H-pyrazol-3-yloxy]ethyl}morpholine hydrochloride]", "values": [{"measurement": "pKa", "setting": "pKa of API-001", "result": 6.8}, {"measurement": "pH solubility profile", "setting": "[1]; FIG. 2", "result": "solubility of API-001 is decreasing when is increasing the pH of the medium"}, {"measurement": "solubility", "setting": "[1]; pH 6.8, aqueous buffer", "result": 600, "unit": "µg/mL"}]}]}
